Literature values, collected in patent publication US20160030469A1, “Human End Uses for a Gas Transporting Rheological Medium” (priority 2014, published 2016).

Conditions: equilibrium with air (pO2=0.21) at 77° F.

O=O [oxygen]
solubility limit of oxygen in water: approximately 8.3 mg/l
